Activity calls are given as the source filed them.
What was measured:
[1] = target: DNA dC->dU-editing enzyme APOBEC-3A (Homo sapiens, UniProt P31941); experiment: Dose Response confirmation of small molecule APOBEC3A DNA Deaminase Inhibitors via a fluorescence-based single-stranded DNA deaminase assay. [Related pubchem assays (depositor defined):AID493011, AID493024]; type: functional
[2] = target: DNA dC->dU-editing enzyme APOBEC-3G (Homo sapiens, UniProt Q9HC16); type: functional;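 further: Dose-response counterscreen measuring inhibition of APOBEC3G DNA deaminase activity, run while confirming APOBEC3A inhibitors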
[3] = cytotoxicity toward NIH3T3 fibroblasts, dose response, counter-screen, cell-based, ATP luminescence, mouse fibroblasts (AID 2010); type: functional;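 further: cells exposed to compound for about 90 hours before reading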
[4] = inhibitors of intracellular T. cruzi replication, confirmation, NIH3T3 host cells, beta-gal luminescence (AID 2044); type: functional, cell-based;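 further: intracellular parasites grown in NIH/3T3 mouse fibroblasts as host cells; luminescent beta-galactosidase reporter signal from transgenic T. cruzi replicating inside host cells; inhibitors lower the luminescence signal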
Aminopeptidase N = target: T1, Aminopeptidase N (Plasmodium falciparum FcB1/Columbia, UniProt O96935); experiment: P. falciparum M1AAP inhibitors, biochemical, fluorogenic H-Leu-NHMec substrate, 1536-well (AID 1445); design: species or system Plasmodium falciparum 3D7, 3D7
T1 sequence (O96935 whole entry): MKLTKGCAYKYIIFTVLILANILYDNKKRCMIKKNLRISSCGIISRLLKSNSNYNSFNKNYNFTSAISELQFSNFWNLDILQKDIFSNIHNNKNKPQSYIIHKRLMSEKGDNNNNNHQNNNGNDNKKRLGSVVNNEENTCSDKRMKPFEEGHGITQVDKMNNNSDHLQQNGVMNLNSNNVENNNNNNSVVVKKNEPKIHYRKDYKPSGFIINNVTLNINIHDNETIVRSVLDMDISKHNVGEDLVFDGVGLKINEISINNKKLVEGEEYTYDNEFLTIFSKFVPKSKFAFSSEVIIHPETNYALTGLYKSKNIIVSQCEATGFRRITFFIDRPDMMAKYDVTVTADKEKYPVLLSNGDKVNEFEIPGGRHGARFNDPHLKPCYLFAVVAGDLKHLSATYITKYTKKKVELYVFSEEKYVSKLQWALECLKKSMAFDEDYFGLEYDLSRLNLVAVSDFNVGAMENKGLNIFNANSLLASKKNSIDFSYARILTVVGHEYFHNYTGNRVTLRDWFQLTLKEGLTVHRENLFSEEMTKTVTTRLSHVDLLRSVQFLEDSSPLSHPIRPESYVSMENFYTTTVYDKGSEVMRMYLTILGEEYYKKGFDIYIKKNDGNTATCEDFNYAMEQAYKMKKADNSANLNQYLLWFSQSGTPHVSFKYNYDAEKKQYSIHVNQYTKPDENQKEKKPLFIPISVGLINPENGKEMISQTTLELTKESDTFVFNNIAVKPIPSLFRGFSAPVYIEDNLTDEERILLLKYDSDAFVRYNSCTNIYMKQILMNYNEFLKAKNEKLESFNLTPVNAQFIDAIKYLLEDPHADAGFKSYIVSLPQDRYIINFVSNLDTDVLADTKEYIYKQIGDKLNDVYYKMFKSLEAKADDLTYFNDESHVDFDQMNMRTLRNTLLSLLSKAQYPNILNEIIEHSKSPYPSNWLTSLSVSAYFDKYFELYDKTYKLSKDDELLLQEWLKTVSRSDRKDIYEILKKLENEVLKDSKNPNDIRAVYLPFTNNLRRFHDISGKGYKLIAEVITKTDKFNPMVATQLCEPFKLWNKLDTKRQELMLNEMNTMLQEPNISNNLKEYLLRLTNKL

[5] = target: T2, Histone-lysine N-methyltransferase NSD2 (Homo sapiens, UniProt O96028); type: biochemical
T2 sequence (O96028 whole entry): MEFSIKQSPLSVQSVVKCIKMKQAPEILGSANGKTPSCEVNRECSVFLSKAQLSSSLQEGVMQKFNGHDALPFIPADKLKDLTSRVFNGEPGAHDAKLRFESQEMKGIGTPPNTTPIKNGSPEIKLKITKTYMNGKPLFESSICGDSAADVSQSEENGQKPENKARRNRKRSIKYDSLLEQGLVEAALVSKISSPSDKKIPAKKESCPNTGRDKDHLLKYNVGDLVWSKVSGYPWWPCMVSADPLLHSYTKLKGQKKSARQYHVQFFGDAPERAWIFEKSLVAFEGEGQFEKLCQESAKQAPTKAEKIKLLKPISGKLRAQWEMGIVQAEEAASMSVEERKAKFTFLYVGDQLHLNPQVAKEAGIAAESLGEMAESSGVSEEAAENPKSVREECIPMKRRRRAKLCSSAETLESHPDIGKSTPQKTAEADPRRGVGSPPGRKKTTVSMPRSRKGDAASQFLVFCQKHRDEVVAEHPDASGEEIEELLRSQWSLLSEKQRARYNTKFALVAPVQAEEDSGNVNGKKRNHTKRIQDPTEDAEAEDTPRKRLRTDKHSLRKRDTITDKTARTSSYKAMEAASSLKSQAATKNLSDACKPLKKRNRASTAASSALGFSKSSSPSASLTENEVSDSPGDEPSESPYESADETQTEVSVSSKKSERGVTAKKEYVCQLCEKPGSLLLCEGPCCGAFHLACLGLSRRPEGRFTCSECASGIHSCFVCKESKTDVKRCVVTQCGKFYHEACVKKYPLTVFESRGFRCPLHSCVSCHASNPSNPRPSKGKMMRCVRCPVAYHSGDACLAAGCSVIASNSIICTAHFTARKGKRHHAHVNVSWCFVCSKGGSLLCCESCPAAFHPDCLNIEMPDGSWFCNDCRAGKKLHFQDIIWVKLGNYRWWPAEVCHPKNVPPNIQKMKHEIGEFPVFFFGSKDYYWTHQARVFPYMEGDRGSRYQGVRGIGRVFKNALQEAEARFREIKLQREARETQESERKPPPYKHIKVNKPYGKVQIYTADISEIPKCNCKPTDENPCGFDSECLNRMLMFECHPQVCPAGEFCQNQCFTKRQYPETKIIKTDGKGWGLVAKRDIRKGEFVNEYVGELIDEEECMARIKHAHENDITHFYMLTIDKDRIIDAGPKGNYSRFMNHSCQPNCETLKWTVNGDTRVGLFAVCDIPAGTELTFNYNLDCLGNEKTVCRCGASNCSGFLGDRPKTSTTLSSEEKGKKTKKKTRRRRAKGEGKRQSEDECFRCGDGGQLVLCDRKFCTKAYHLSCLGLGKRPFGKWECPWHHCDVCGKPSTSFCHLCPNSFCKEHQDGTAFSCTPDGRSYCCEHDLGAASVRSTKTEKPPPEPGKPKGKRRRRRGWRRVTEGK

Protein RecA = target: T3, Protein RecA (Mycobacterium tuberculosis, UniProt P9WHJ3); experiment: Fluorescence Cell-Free Homogeneous Dose Retest to Identify Inhibitors of RecA-Intein Splicing Activity. [Related pubchem assays (depositor defined):AID2097, AID2223, AID489010, AID492950]; type: functional
T3 sequence (P9WHJ3 whole entry): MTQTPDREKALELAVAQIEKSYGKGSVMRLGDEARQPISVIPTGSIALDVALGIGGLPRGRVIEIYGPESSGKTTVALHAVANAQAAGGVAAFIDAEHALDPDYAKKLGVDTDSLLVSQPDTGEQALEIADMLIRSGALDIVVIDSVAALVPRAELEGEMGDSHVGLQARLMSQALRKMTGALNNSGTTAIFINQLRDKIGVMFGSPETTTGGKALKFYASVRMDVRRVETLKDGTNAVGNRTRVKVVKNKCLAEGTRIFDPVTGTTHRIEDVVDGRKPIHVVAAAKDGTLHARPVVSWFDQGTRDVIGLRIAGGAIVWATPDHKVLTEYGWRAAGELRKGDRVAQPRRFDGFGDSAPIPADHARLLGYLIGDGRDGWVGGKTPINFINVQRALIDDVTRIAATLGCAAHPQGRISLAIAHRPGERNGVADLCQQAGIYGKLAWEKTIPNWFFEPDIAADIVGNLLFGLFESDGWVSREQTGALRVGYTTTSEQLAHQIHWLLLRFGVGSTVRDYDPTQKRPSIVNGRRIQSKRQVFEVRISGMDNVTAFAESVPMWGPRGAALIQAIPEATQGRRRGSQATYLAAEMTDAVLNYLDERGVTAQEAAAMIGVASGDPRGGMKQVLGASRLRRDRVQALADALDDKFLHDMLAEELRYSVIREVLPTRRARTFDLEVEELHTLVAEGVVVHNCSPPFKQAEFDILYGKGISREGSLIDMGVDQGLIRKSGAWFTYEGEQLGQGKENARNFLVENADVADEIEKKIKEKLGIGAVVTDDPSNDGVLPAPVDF

[6] = microbe, parasite or virus in culture; type: functional; conditions: Mycobacterium tuberculosis
[7] = growth suppression of beta-catenin-knockout colon cells, dose response, cell-based, HCT116, human colon tumor (AID 1045); type: functional;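 further: HCT116 colon tumor cells with beta catenin knocked out; cells exposed to compound for 60 hours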
[8] = target: Induced myeloid leukemia cell differentiation protein Mcl-1 (Homo sapiens, UniProt Q07820); type: functional
[9] = inhibitors of SNCA 5'UTR-driven reporter translation, confirmation, H4 neuroglioma cells, luminescence (AID 1988); type: functional, cell-based
[10] = inhibitors of firefly luciferase expression or activity, dose response, H4 neuroglioma cells, luminescence (AID 1990); type: functional, cell-based
INS1 = experiment: beta cell apoptosis inhibitors, cytokine rescue, dose response, luminescence, retest (AID 449756); type: functional, cell-based; conditions: Rattus norvegicus;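 further: cell death triggered by IL-1 beta plus TNF-alpha plus IFN-gamma mixture; protective hits raise ATP signal compared with cytokine alone wells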
[11] = Luminescence Cell-Based Dose Response HTS to Identify Inhibitors of 5'UTR Stem-Loop Driven Prion Protein mRNA Translation in H4 Neuroglioblastoma Cells. [Related pubchem assays: 1827 (Project Summary), 1813 (Primary HTS)]; type: functional
[12] = Shn3 3'UTR reporter inhibitors, dose response, cell-based, Clone20 osteoblasts, firefly luciferase, cherry-picked (AID 624132); type: functional;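 further: firefly luciferase luminescence from reporter carrying the Shn3 3'UTR in osteoblasts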
Paired box protein Pax-8 = Paired box protein Pax-8 (Homo sapiens, UniProt Q06710); experiment: inhibitors of PAX8-driven TPO luciferase reporter, dose response, RMG-I cells, cherry-pick (AID 687027); type: functional, cell-based;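 further: luciferase reporter driven by Pax8 target thyroperoxidase promoter measured by SteadyGlo luminescence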
Streptococcus = experiment: Group A Streptococcus viability loss, dose response, counter-screen for streptokinase expression inhibitor project, luminescence, BacTiterGlo (AID 1915); type: functional, organism-based;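 further: potency for reduction of bacterial viability or growth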
[13] = HepG2 cell cytotoxicity, dose response, cytotoxicity control for Shn3 inhibitor project, CellTiter-Glo, cherry-picked (AID 624134); type: functional, cell-based
[14] = control 3'UTR Renilla luciferase suppression, dose response, counter-screen for Shn3 inhibitor project, cell-based, Clone20-Shn3RL, cherry-picked (AID 624133); type: functional
Streptokinase A = target: T4, Streptokinase A (Streptococcus pyogenes serotype M1, UniProt P10520); experiment: S. pyogenes streptokinase expression inhibitors, potency, dose response, plasminogen activation absorbance, OD405 (AID 1914); type: functional, Streptococcus pyogenes M1 GAS;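 further: secreted streptokinase activity via plasminogen activation per viability signal from cell pellet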
T4 sequence (P10520 whole entry): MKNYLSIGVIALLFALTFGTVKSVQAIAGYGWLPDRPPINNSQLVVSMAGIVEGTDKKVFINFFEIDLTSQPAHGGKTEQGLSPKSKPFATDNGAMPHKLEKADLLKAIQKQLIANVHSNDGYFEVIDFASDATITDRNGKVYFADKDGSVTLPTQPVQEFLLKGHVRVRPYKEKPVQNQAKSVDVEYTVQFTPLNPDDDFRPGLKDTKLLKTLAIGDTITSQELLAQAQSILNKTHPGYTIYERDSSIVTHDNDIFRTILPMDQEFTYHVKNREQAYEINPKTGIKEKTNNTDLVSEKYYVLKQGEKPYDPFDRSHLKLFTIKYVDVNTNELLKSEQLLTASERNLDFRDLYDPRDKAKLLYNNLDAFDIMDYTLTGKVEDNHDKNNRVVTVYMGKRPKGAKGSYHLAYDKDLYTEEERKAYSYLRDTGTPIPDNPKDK

[15] = growth suppression of PTEN-null colon cells, dose response, cell-based, HCT116 PTEN knockout (AID 1047); type: functional;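 further: HCT116 colon tumor cells with PTEN knocked out; cells exposed to compound for 60 hours before readout; potency for loss of cell viability measured by luminescence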
[16] = tested on: Streptococcus sp. 'group A'; experiment: growth inhibition of control SK(-) GAS strain, dose response, counter-screen for streptokinase expression inhibitor project, luminescence, kanamycin, BacTiterGlo, confirmation (AID 1900); type: functional, organism-based

DNA dC->dU-editing enzyme APOBEC-3G, sequence (Q9HC16 whole entry): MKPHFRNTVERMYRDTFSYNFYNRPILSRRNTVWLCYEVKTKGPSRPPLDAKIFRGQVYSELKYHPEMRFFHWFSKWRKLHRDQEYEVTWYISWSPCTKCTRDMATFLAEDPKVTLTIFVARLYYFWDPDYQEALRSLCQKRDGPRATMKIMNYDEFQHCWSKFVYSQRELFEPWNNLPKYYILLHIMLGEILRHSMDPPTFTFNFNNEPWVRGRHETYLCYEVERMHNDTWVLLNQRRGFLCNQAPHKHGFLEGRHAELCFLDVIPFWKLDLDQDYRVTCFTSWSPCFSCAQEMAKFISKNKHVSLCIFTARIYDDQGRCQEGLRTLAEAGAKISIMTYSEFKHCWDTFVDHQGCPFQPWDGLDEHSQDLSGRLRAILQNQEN
DNA dC->dU-editing enzyme APOBEC-3A, sequence (P31941 whole entry): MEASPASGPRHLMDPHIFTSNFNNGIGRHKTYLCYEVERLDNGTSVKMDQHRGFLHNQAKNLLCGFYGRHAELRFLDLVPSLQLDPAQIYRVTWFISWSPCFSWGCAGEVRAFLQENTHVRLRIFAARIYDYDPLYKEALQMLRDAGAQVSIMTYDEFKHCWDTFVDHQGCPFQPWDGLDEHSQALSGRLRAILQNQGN
Paired box protein Pax-8, sequence (Q06710 whole entry): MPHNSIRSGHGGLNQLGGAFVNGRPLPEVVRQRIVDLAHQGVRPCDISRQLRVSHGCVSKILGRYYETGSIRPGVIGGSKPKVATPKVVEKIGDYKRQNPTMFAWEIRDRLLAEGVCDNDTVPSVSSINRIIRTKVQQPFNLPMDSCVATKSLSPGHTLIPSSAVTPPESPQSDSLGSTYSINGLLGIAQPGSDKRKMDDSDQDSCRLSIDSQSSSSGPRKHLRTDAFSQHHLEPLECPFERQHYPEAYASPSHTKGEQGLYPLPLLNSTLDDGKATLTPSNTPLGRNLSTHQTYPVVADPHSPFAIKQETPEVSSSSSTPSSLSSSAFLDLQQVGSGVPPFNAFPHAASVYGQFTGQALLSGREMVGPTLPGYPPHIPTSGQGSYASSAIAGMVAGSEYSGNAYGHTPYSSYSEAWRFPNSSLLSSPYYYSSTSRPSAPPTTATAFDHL
Induced myeloid leukemia cell differentiation protein Mcl-1, sequence (Q07820 whole entry): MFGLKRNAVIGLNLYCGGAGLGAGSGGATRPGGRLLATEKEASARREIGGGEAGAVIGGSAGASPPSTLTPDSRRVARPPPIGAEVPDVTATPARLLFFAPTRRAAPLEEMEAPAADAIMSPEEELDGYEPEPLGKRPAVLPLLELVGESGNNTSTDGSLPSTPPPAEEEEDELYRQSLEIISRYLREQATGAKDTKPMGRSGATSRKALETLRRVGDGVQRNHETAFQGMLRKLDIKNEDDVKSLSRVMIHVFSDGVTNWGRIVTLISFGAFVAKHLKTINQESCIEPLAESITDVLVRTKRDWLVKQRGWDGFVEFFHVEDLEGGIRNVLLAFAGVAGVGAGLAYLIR

## COC(=O)C(C)N1C(=O)S/C(=C\c2ccc(-c3ccc(C(=O)O)cc3C)o2)C1=O (centres undefined)
[1]
  IC50: 5.66 µM (active)
[2]
  IC50: 4.97 µM (active)

## O=C(Nc1ccc(NC(=O)c2ccc(Cl)cc2Cl)cc1)c1cccs1
[1]
  IC50: 10.6 µM (active)
[2]
  IC50: 11.8 µM (active)

## CCN1CCN(c2ccc(S(=O)(=O)N3CCCCC3)cc2NC(=O)c2cccc(C(F)(F)F)c2)CC1
[1]
  IC50: 7.71 µM (active)
[2]
  IC50: 13.2 µM (active)
[3]
  EC50: > 30 µM (not active)
[4]
  EC50: 1.09 µM (active)

## C=CCn1c(NC(=O)c2ccc(Br)o2)c(S(=O)(=O)c2ccccc2)c2nc3ccccc3nc21
Aminopeptidase N
  IC50: 17.4 µM (active)
[5]
  AC50: 10.6 µM (active)
Protein RecA
  EC50: > 380 µM (inconclusive)

## Nc1c(C(=O)O)cnc2c(-c3ccc(Cl)cc3)cnn12
Aminopeptidase N
  IC50: 42.4 µM (active)
[6]
  CC50: 24.6 µM (active)

## CCOC(=O)C1CCN(S(=O)(=O)c2ccc3c(c2)CC(=O)N3C)CC1
[1]
  IC50: 2.81 µM (active)
[2]
  IC50: 4 µM (active)

## O=C(Nc1ccc([N+](=O)[O-])cc1)Nc1nc(-c2ccc(Cl)s2)cs1
[7]
  EC50: 0.991 µM (active)
[8]
  IC50: 5.32 µM (active)
[9]
  EC50: 8.39 µM (active)
[10]
  EC50: 8.65 µM (active)
INS1
  AC50: 1.54 µM (active)
[11]
  EC50: 8.31 µM (active)
[12]
  AC50: 3.19 µM (active)
Paired box protein Pax-8
  AC50: 2.42 µM (active)
Streptococcus
  EC50: 81.8 µM (active)
[13]
  AC50: 4.82 µM (active)
[14]
  AC50: 3.04 µM (active)
Streptokinase A
  EC50: 44.8 µM (inconclusive)
[15]
  EC50: 0.8 µM (active)
[16]
  EC50: 6.16 µM (active)

## COC(=O)c1ccc(Cl)c(NS(=O)(=O)c2ccc3c(c2)OCCO3)c1
Aminopeptidase N
  IC50: 29.7 µM (active)

## CC[n+]1c(C)n(Cc2ccccc2)c2ccc(C(=O)OC)cc21
[1]
  IC50: 2.88 µM (active)
[2]
  IC50: 3.62 µM (active)

## C[n+]1cccc(C(=O)N/N=C/c2ccc3c(c2)OCO3)c1
[1]
  IC50: 3.15 µM (active)
[2]
  IC50: 8.99 µM (active)

Reference: ChEMBL document CHEMBL1201862, “PubChem BioAssay data set” (2004)
